Tested on in one data set: not given
Experiment: not given
As to conditions: Nature reviews, 4, 967-975, 2005; cited from earlier work.
With `CC(=O)N(C)C1(c2ccccc2)CCN(CCC[C@]2(c3ccc(Cl)c(Cl)c3)CCCN(C(=O)c3ccccc3)C2)CC1` [Osanetant, osanetant], the bioavailability entry is reported as “poor”, the blood-brain barrier penetration result was “poor”, the clearance entry is “relatively high” and the solubility result is recorded as “poor”.

`CC[C@H](NC(=O)c1c(O)c(-c2ccccc2)nc2ccccc12)c1ccccc1` [talnetant]: the bioavailability result was “poor”, the blood-brain barrier penetration result is “poor”, the clearance entry is reported as “relatively high” and the solubility result is given as “poor”.

Tested on in a further data set: not given
Experiment: not given
As to conditions: Am. J. Psychiatry, 161, 2004, 975-984; cited from earlier work.
For the molecule `CC(=O)N(C)C1(c2ccccc2)CCN(CCC[C@]2(c3ccc(Cl)c(Cl)c3)CCCN(C(=O)c3ccccc3)C2)CC1` [Osanetant, osanetant], the “effect in clinical trials, in particular on positive symptoms of psychosis” value is given as “superior to placebo”.

Staying with this data set, now noted: schizophrenics; Curr. Opion. Invest. Drug, 6, 717-721, 2005; cited from earlier work.
As for `CC[C@H](NC(=O)c1c(O)c(-c2ccccc2)nc2ccccc12)c1ccccc1` [talnetant], the “effect on cognitive behaviour in clinical trials” value is “ameliorate the cognitive behaviour of schizophrenics”.

In another data set the target is T1, human NK3 receptor (Homo sapiens, UniProt P29371).
T1 construct: expressed in transfected cells
T1 sequence (P29371 1-465): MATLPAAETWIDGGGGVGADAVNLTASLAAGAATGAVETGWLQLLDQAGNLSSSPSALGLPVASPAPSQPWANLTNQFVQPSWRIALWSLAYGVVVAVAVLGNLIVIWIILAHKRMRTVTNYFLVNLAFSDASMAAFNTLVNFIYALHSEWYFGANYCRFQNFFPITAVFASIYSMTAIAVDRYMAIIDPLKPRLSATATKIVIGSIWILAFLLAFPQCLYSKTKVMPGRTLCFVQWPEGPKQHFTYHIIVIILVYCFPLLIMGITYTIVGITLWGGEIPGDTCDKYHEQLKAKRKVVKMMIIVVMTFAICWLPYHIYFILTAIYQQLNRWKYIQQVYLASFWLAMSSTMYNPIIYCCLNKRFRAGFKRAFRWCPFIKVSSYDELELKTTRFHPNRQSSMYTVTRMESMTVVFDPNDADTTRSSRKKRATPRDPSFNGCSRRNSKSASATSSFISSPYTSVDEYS
As to the kind of experiment: NK3 receptor binding assay (filter-based competition binding, 3H-AE93103). As to conditions: BHK cell membranes expressing human NK3 receptor; Ki from IC50 by Cheng Prusoff equation; read-out: Affinity (Ki/nM). As for the experimental part:
BHK cells stably expressing the human NK3 receptor were seeded in harvesting plates in Dulbeccos MEM containing GlutaMax (862 mg/l), 1 mM sodium pyruvate, 10% fetal calf serum, 1% Pen/Strep, 1 mg/ml G418 and were grown at 34° C. in a humidified atmosphere containing 10% CO2. To increase receptor expression, 10 μM trichotatin A was added to the media 24 hours before harvest of the cells at a confluency of app 90%. Prior to the harvesting, the cells were washed twice with PBS without Mg^2+ of Ca^2+ and subsequently scrapped of in 10 ml PBS pr harvesting plate. The cells suspension were centrifuged at 1500×G in three minutes before resuspension in 15 mM Tris-HCl buffer pH 7.5 containing 2 mM MgCl2; 0.3 mM EDTA and 1 mM EGTA (buffer A). The cell suspension was homogenised and subsequently centrifuged at 40000×G in 30 minutes. The membrane-pellet was resuspended in buffer A containing 250 mM sucrose, aliquoted and stored at −80° C.
The assay is performed as a filter-based competition-binding in a 50 mM Tris pH 7.4 assay buffer containing 120 mM NaCl and 3 mM MnCl2. App 0.05 nM ^3H-AE93103 was mixed with test compounds before addition of 0.15 μg of a homogenised NK3 membrane preparation in a total volume of 300 μl. The assay plate is incubated for 90 min at RT before content of the wells is transferred using a cell-harvester to GF/C filter plates, which has been pretreated with 0.1% PEI. The filter is washed 3 times with 1 ml an ice-cold 50 mM Tris buffer, pH 7.4. The filter is dried and added scintillation liquid before the plate is counted in a topcounter 5 minutes pr well.
The total binding, which comprised less than 10% of added radioligand, was defined using assay buffer whereas the non-specific binding was defined in the presence of 1 μM SR142801. The non-specific binding constituted ˜10% of the total binding.
Data points are expressed in percent of the specific binding of ^3H-AE93103 and the […] (concentration causing 50% inhibition of ^3H-AE93103 specific binding) are determined by non-linear regression analysis using a sigmoidal variable slope curve fitting.
With `CCCn1c(C)c(C(=O)N[C@H](c2ccccc2Cl)C2CC2)c(C)c(Br)c1=O` [Example 1s, 5-Bromo-2,4-dimethyl-6-oxo-1-propyl-1,6-dihydro-pyridine-3-carboxylic acid [(S)-(2-chloro-phenyl)-cyclopropyl-methyl]-amide], the Ki amounted to 67 nM.

With `Cc1c(C(=O)N[C@H](c2cccc(F)c2)C2CCC2)c(C(F)(F)F)c(Br)c(=O)n1-c1ccccc1` [Example 2g, 5-Bromo-2-methyl-6-oxo-1-phenyl-4-trifluoromethyl-1,6-dihydro-pyridine-3-carboxylic acid [(S)-cyclobutyl-(3-fluoro-phenyl)-methyl]-amide], the Ki amounted to 7 nM.

For `CCNn1c(C)c(C(=O)N[C@H](c2cccc(F)c2)C2CCC2)c(C)c(Br)c1=O` [Example 2c, 5-Bromo-1-ethylamino-2,4-dimethyl-6-oxo-1,6-dihydro-pyridine-3-carboxylic acid [(S)-cyclobutyl-(3-fluoro-phenyl)-methyl]-amide], the Ki stood at 24 nM.

With `C#Cc1c(C)c(C(=O)N[C@H](c2cccc(F)c2)C2CCC2)c(C)n(-c2ccccc2)c1=O` [Example 3e, 5-Ethynyl-2,4-dimethyl-6-oxo-1-phenyl-1,6-dihydro-pyridine-3-carboxylic acid [(S)-cyclobutyl-(3-fluoro-phenyl)-methyl]-amide], the Ki amounted to 240 nM.

`Cc1c(C(=O)N[C@H](c2cccc(F)c2)C2CCC2)c(C(F)(F)F)c(Cl)c(=O)n1-c1ccccc1` [Example 2m, 5-Chloro-2-methyl-6-oxo-1-phenyl-4-trifluoromethyl-1,6-dihydro-pyridine-3-carboxylic acid [(S)-cyclobutyl-(3-fluoro-phenyl)-methyl]-amide]: the Ki turned out to be 24 nM.

As to `CCCn1c(C)c(C(=O)N[C@H](c2cc(F)cc(F)c2)C2CCC2)c(C)c(Br)c1=O` [Example 1ak, 5-Bromo-2,4-dimethyl-6-oxo-1-propyl-1,6-dihydro-pyridine-3-carboxylic acid [(S)-cyclobutyl-(3,5-difluoro-phenyl)-methyl]-amide], the Ki was 49 nM.

In the case of `Cc1c(C(=O)N[C@H](c2cccc(F)c2)C2CCC2)c(C)n(-c2ccccc2)c(=O)c1Br` [Example 2a, 5-Bromo-2,4-dimethyl-6-oxo-1-phenyl-1,6-dihydro-pyridine-3-carboxylic acid [(S)-cyclobutyl-(3-fluoro-phenyl)-methyl]-amide], the Ki was found to be 52 nM.

As for `CCCn1c(C)c(C(=O)N[C@H](c2ccccc2)C2CCC2)c(C)c(Br)c1=O` [Example 1z, 5-Bromo-2,4-dimethyl-6-oxo-1-propyl-1,6-dihydro-pyridine-3-carboxylic acid ((S)-cyclobutyl-phenyl-methyl)-amide], the Ki was found to be 36 nM.

Regarding `CCCc1c(C(=O)N[C@H](c2cccc(F)c2)C2CCC2)c(C)n(-c2ccccc2)c(=O)c1Br` [Example 2f, 5-Bromo-2-methyl-6-oxo-1-phenyl-4-propyl-1,6-dihydro-pyridine-3-carboxylic acid [(S)-cyclobutyl-(3-fluoro-phenyl)-methyl]-amide], the Ki amounted to 90 nM.

Take `CCc1c(C(=O)N[C@H](c2cccc(F)c2)C2CCC2)c(C)n(-c2ccccc2)c(=O)c1Br` [Example 2e, 5-Bromo-4-ethyl-2-methyl-6-oxo-1-phenyl-1,6-dihydro-pyridine-3-carboxylic acid [(S)-cyclobutyl-(3-fluoro-phenyl)-methyl]-amide]: the Ki came to 50 nM.

In the case of `CCCNn1c(C)c(C(=O)N[C@H](c2ccccc2)C2CCC2)c(C)c(Br)c1=O` [Example 1i, 5-Bromo-2,4-dimethyl-6-oxo-1-propylamino-1,6-dihydro-pyridine-3-carboxylic acid ((S)-cyclobutyl-phenyl-methyl)-amide], the Ki is 16 nM.

With `CCCNn1c(C)c(C(=O)N[C@H](c2cccc(F)c2)C2CCC2)c(C)c(C#N)c1=O` [Example 3b, 5-Cyano-2,4-dimethyl-6-oxo-1-propylamino-1,6-dihydro-pyridine-3-carboxylic acid [(S)-cyclobutyl-(3-fluoro-phenyl)-methyl]-amide], the Ki worked out at 22 nM.

Turning to `Cc1c(C(=O)N[C@H](c2cccc(F)c2)C2CCC2)c(C)n(Cc2ncco2)c(=O)c1C#N` [Example 3d, 5-Cyano-2,4-dimethyl-1-oxazol-2-ylmethyl-6-oxo-1,6-dihydro-pyridine-3-carboxylic acid [(S)-cyclobutyl-(3-fluoro-phenyl)-methyl]-amide], the Ki worked out at 34 nM.

As to `CCCn1c(C)c(C(=O)N[C@H](c2cccc(F)c2)C2CCC2)c(C)c(Br)c1=O` [Example 2d, 5-Bromo-2,4-dimethyl-6-oxo-1-propyl-1,6-dihydro-pyridine-3-carboxylic acid [(S)-cyclobutyl-(3-fluoro-phenyl)-methyl]-amide], the Ki came out at 30 nM.

These data come from patent US8207347B2, “Pyridone derivatives as NK3 antagonists” (H. Lundbeck A/S, priority 2009, dated 2012).
